Measurements: patent publication EP4721767A1 (priority 2023, dated 2024)
Values joined by “and” are separate entries in the source; they are usually repeats but may differ in a detail not shown here. Equal values may be shown once.

How the values were obtained:
[1] = system: KB oral epithelial cancer cells; assay: Cell killing activity of camptothecins (CCK-8); assay type: cell-based; conditions: killing 4 days; for EC50: 96 h
Experimental: (§1) KB oral epithelial cancer cells (purchased from: ATCC) were cultured in DMEM medium supplemented with 10% FBS; NCI-N87 human gastric cancer cells (purchased from: ATCC) were cultured in RPMI1640 medium supplemented with 10% FBS; HT29 human colon cancer cells (purchased from: ATCC) were cultured in RPMI1640 medium supplemented with 10% FBS; and BxPC-3 human pancreatic adenocarcinoma cells (purchased from: ATCC) were cultured in RPMI1640 medium supplemented with 10% FBS.
(§2) Using corresponding media described above and in cell plates, the density of KB cells was adjusted to 2×10^4/mL; the density of NCI-N87 cells was adjusted to 5×10^4/mL; the density of HT29 cells was adjusted to 5×10^4/mL, and the cells were plated onto 96-well transparent flat bottom plates, at 100 µL/well, and cultured overnight; and the density of BxPC-3 cells was adjusted to 5×10^4/mL.
(§3) Samples to be detected were diluted to 20 µM with corresponding media, then 5-fold gradient dilution was performed, and 9 concentrations were obtained. A well having cells but with no any sample added was set as the well showing maximum cell growth; and a well having no cells was set as the well of medium background. The diluted samples were added into the cell plates, at 100 µL/well, which were then incubated in a CO2 incubator for 96 hours. After the incubation, CCK-8 (purchased from: DOJINDO LABORATORIES) prepared beforehand was added into the plates, at 20 µL/well, and after further 3 hours of incubation in the CO2 incubator, OD values at 450 nm were read on a microplate reader.
(§4) Data obtained was fitted to a four-parameter curve using software Prism7, and equation for calculating maximum killing is: maximum killing (%) = 1 - (OD450 value of the well showing maximum killing - OD450 value of the well of medium background) / (OD450 value of the well showing maximum cell growth - OD450 value of the cell of medium background) × 100%. Table 6. Results of comparative study on the activity of camptothecins

[2] = system: HT29 human colon cancer cells; assay: Cell killing activity of camptothecins (CCK-8); assay type: cell-based; conditions: HT29, killing 4 days; for EC50: Homo sapiens, HT-29, 96 h
Experimental: as §1, §2, §3, §4

[3] = system: NCI-N87 human gastric cancer cells; assay: cells; assay type: cell-based; conditions: NCI-N87, killing 4 days; for EC50: Homo sapiens, NCI-N87, 96 h
[4] = system: BxPC-3 human pancreatic adenocarcinoma cells; assay: cells; assay type: cell-based; conditions: BxPC-3, killing 4 days; for EC50: Homo sapiens, BXPC-3, 96 h
[5] = molecular target: T1, human B7-H3 naturally expressed on the surface of SKOV3 cells (human, UniProt Q5ZPR3 29-534); assay: flow cytometry (MFI) on SKOV3 cells naturally expressing human B7-H3
T1 construct: whole, on cells; also called surface antigen of SKOV3 cells; B7-H3 on the surface of SKOV3 cells
T1 sequence (looked up): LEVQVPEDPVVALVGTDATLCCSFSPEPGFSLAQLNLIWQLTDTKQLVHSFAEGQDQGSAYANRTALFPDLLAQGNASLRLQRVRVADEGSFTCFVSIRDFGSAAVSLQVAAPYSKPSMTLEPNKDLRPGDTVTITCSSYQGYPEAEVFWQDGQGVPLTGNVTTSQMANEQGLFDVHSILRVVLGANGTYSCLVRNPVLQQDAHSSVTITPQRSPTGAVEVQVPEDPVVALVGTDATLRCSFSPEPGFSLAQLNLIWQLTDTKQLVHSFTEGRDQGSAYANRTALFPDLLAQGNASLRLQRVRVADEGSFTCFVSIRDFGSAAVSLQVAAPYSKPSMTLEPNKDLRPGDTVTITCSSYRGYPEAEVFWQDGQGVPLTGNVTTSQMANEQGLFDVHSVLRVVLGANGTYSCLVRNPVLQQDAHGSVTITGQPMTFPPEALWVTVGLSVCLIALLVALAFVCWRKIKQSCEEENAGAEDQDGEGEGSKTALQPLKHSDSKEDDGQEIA

[6] = molecular target: T2, Recombinant human B7-H3 extracellular domain protein (UniProtKB-Q5ZPR3, amino acids 1-461, C-His tag) (human, UniProt Q5ZPR3 29-461); assay: BLI (ForteBio Octet QKe), antibody on AHC probes, 60 nM antigen, 1:1 Langmuir fit
T2 construct: range 1-461; The printed range 1-461 starts at residue 1 and so covers the signal peptide; also called human B7-H3 ECD-His; recombinant human B7-H3 ECD protein; not shown: C-terminal His tag
T2 sequence (looked up): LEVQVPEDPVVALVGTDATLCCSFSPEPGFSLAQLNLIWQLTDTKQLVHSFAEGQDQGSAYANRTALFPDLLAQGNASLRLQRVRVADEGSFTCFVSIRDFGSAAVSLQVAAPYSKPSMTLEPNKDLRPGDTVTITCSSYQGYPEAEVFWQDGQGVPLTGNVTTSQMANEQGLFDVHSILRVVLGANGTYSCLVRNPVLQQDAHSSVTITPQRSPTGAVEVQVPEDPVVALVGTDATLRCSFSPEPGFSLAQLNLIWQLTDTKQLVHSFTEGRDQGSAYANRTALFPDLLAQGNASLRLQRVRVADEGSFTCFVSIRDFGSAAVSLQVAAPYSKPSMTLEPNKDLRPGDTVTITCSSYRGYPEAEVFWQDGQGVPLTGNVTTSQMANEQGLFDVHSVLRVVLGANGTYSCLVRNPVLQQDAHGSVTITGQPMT

Molecule | EC50 [3] | EC50 [4] | EC50 [5] | Kd [6] | koff [6] | kon [6] | further results
CC[C@@]1(O)C(=O)OCc2c1cc1n(c2=O)Cc2c-1nc1ccc(N)c3c1c2C(C)(C)CC3 [Compound 1] | 21.9 nM | – | – | – | – | – | EC50 [1]: 52.3 nM; Maximum Killing (%) [1]: 97.6%; Maximum Killing (%) [2]: 91.9%; EC50 [2]: 43.4 nM
CC[C@@]1(O)C(=O)OCc2c1cc1n(c2=O)Cc2c-1nc1ccc(N)c3c1c2C1CC1C3 (stereo partly drawn) [Compound 7] | 3.31 nM | 11.4 nM | – | – | – | – | –
CC[C@@]1(O)C(=O)OCc2c1cc1n(c2=O)Cc2c-1nc1ccc(N)c3c1c2CCS3 [Compound 12] | 8.43 nM | 2.15 nM | – | – | – | – | –
CC[C@@]1(O)C(=O)OCc2c1cc1n(c2=O)Cc2c-1nc1ccc(N)c3c1c2CC[S@+]3[O-] [Compound 14-P1] | 503 nM | – | – | – | – | – | –
CC[C@@]1(O)C(=O)OCc2c1cc1n(c2=O)Cc2c-1nc1ccc(N)c3c1c2CC[S@@+]3[O-] [Compound 14-P2] | 2000 nM | – | – | – | – | – | –
CC[C@@]1(O)C(=O)OCc2c1cc1n(c2=O)Cc2c-1nc1ccc(N)c3c1c2CCS3(=O)=O [Compound 15] | 178 nM | 79.6 nM | – | – | – | – | –
CC[C@@]1(O)C(=O)OCc2c1cc1n(c2=O)Cc2c-1nc1cc(F)c(N)c3c1c2CCO3 [Compound 18] | 1.57 nM | 1.45 nM | – | – | – | – | –
CC[C@@]1(O)C(=O)OCc2c1cc1n(c2=O)Cc2c-1nc1cc(F)c(N)c3c1c2C(F)(F)CO3 [Compound 19] | 0.864 nM | 1.4 nM | – | – | – | – | Maximum Killing (%) [3]: 93.5%
CC[C@@]1(O)C(=O)OCc2c1cc1n(c2=O)Cc2c-1nc1cc(F)c(N)c3c1c2CCS3 [Compound 26] | 1.02 nM | 1.11 nM | – | – | – | – | –
CC[C@@]1(O)C(=O)OCc2c1cc1n(c2=O)Cc2c-1nc1cc(F)c(N)c3c1c2C(F)(F)CS3 [Compound 27] | 1.75 nM | 1.52 nM | – | – | – | – | –
CC[C@@]1(O)C(=O)OCc2c1cc1n(c2=O)Cc2c-1nc1ccc(N)c3c1c2C(F)(F)CO3 [Compound 31] | 8.59 nM | 4.42 nM | – | – | – | – | –
CC[C@@]1(O)C(=O)OCc2c1cc1n(c2=O)Cc2c-1nc1cc(F)c(C)c3c1c2[C@@H](NC(=O)CO)CC3 [Dxd, reference compound] | – | 33.7 nM | – | – | – | – | Maximum Killing (%) [4]: 93.1%; EC50 [1]: 138 nM; EC50 [2]: 133 nM; Maximum Killing (%) [3]: 93.3%
CC[C@@]1(O)C(=O)OCc2c1cc1n(c2=O)Cc2c-1nc1ccc(N)c3c1c2CCC3 [MWC-1, reference compound] | – | – | – | – | – | – | EC50 [1]: 15.7 nM; Maximum Killing (%) [1]: 98.6%; Maximum Killing (%) [2]: 89% and 89.9%; Maximum Killing (%) [3]: 93.3%
hz10B4 (antibody, V domains shown, Humanized anti-B7-H3 antibody prepared by the method of CN114573695A; also called parent hz10B4; hz10B4-VH×hz10B4-VL) VH: EVQLVQSGAEVKKPGASVKVSCKASGYTFTEYIMHWVRQAPGQGLEWMGGINPASGGTTYNQKFKGRVTMTRDTSISTAYMELSRLRSEDTAVYYCARKGKDYFDWYFDVWGQGTTVTVSS VL: DIQLTQSPSSLSASVGDRVTMTCSASSSVSYMHWYQQKPGKAPKLLIYDTSKLASGVPSRFSGSGSGTDFTLTISSLQPEDFATYYCQQWSSNPLTFGGGTKVEIK | – | – | 1.58 nM | 0.216 nM | 0.000143 s⁻¹ | 665000 M⁻¹ s⁻¹ | –
hz10B4m1 (antibody, V domains shown, LCDR3 variant of hz10B4 (SSN→SSA); also called hz10B4-VH×hz10B4-Lm1-VL) VH: EVQLVQSGAEVKKPGASVKVSCKASGYTFTEYIMHWVRQAPGQGLEWMGGINPASGGTTYNQKFKGRVTMTRDTSISTAYMELSRLRSEDTAVYYCARKGKDYFDWYFDVWGQGTTVTVSS VL: DIQLTQSPSSLSASVGDRVTMTCSASSSVSYMHWYQQKPGKAPKLLIYDTSKLASGVPSRFSGSGSGTDFTLTISSLQPEDFATYYCQQWSSAPLTFGGGTKVEIK | – | – | 1.89 nM | 0.352 nM | 0.000225 s⁻¹ | 639000 M⁻¹ s⁻¹ | –
hz10B4m5 (antibody, V domains shown, LCDR3 variant of hz10B4 (SSN→SGS); also called hz10B4-VH×hz10B4-Lm5-VL) VH: EVQLVQSGAEVKKPGASVKVSCKASGYTFTEYIMHWVRQAPGQGLEWMGGINPASGGTTYNQKFKGRVTMTRDTSISTAYMELSRLRSEDTAVYYCARKGKDYFDWYFDVWGQGTTVTVSS VL: DIQLTQSPSSLSASVGDRVTMTCSASSSVSYMHWYQQKPGKAPKLLIYDTSKLASGVPSRFSGSGSGTDFTLTISSLQPEDFATYYCQQWSGSPLTFGGGTKVEIK | – | – | 2.25 nM | 0.568 nM | 0.000336 s⁻¹ | 592000 M⁻¹ s⁻¹ | –
hz10B4m4 (antibody, V domains shown, LCDR3 variant of hz10B4 (SSN→SSG); also called hz10B4-VH×hz10B4-Lm4-VL) VH: EVQLVQSGAEVKKPGASVKVSCKASGYTFTEYIMHWVRQAPGQGLEWMGGINPASGGTTYNQKFKGRVTMTRDTSISTAYMELSRLRSEDTAVYYCARKGKDYFDWYFDVWGQGTTVTVSS VL: DIQLTQSPSSLSASVGDRVTMTCSASSSVSYMHWYQQKPGKAPKLLIYDTSKLASGVPSRFSGSGSGTDFTLTISSLQPEDFATYYCQQWSSGPLTFGGGTKVEIK | – | – | 16.9 nM | 0.831 nM | 0.00042 s⁻¹ | 505000 M⁻¹ s⁻¹ | –
hz10B4m3 (antibody, V domains shown, LCDR3 variant of hz10B4 (SSN→SSQ); also called hz10B4-VH×hz10B4-Lm3-VL) VH: EVQLVQSGAEVKKPGASVKVSCKASGYTFTEYIMHWVRQAPGQGLEWMGGINPASGGTTYNQKFKGRVTMTRDTSISTAYMELSRLRSEDTAVYYCARKGKDYFDWYFDVWGQGTTVTVSS VL: DIQLTQSPSSLSASVGDRVTMTCSASSSVSYMHWYQQKPGKAPKLLIYDTSKLASGVPSRFSGSGSGTDFTLTISSLQPEDFATYYCQQWSSQPLTFGGGTKVEIK | – | – | 1.59 nM | 0.422 nM | 0.000281 s⁻¹ | 666000 M⁻¹ s⁻¹ | –
hz10B4m2 (antibody, V domains shown, LCDR3 variant of hz10B4 (SSN→SAS); also called hz10B4-VH×hz10B4-Lm2-VL) VH: EVQLVQSGAEVKKPGASVKVSCKASGYTFTEYIMHWVRQAPGQGLEWMGGINPASGGTTYNQKFKGRVTMTRDTSISTAYMELSRLRSEDTAVYYCARKGKDYFDWYFDVWGQGTTVTVSS VL: DIQLTQSPSSLSASVGDRVTMTCSASSSVSYMHWYQQKPGKAPKLLIYDTSKLASGVPSRFSGSGSGTDFTLTISSLQPEDFATYYCQQWSASPLTFGGGTKVEIK | – | – | 1.45 nM | 0.381 nM | 0.000287 s⁻¹ | 755000 M⁻¹ s⁻¹ | –
